Experimental data taken from publication PMC5323433 (The pharmacogenomics journal, 2016).

What was measured:
breast cancer = details: letrozole compared to placebo in 352 minority patients, p=0.53; cited from earlier work
[1] = Steady-state plasma exemestane concentration two hours after dosing; assay type: in vivo, human; details: for Relative % change per variant allele (95% CI): additive model
[2] = cited from earlier work
[3] = CYP3A4*22 rs35599367, oral 25 mg/day, 2 h post-dose

For `N#Cc1ccc(C(c2ccc(C#N)cc2)n2cncn2)cc1` [letrozole], the “Disease free survival hazard ratio” value (breast cancer) is listed as 1.39.

For `C=C1C[C@@H]2[C@H](CC[C@]3(C)C(=O)CC[C@@H]23)[C@@]2(C)C=CC(=O)C=C12` [exemestane], the “Median Exemestane Concentration” value ([1]; 1st Tertile (CrCl > 108.5 mL/min), 2 h post-dose) was 5.9 ng/mL, the “Relative % Change Compared with Reference (95% Confidence Interval)” value ([1]; 2nd CrCl tertile vs 1st tertile (reference)) was “+42.9% (8.3%–88.5%)” and the “Median Exemestane Concentration” value ([1]; 2nd Tertile (83.0 < CrCl ≤ 108.5), 2 h post-dose) was 8.6 ng/mL. For the same compound, the “Relative % Change Compared with Reference (95% Confidence Interval)” value ([1]; 3rd CrCl tertile vs 1st tertile (reference)) was “+51.1% (14.5%–99.5%)”, the “Median Exemestane Concentration” value ([1]; 3rd Tertile (CrCl ≤ 83.0 mL/min), 2 h post-dose) was 8.0 ng/mL and the “Relative % change per variant allele (95% CI)” value ([1]; AKR1C4 Leu311Val rs17134592) was −8% (−25%, 13%). For the same compound, the “Relative % change per variant allele (95% CI)” value ([1]; AKR7A2 A142T rs1043657) was −1% (−22%, 26%), the “Relative % Change (95% Confidence Interval)” value ([1]; Age, per year increase) was “+0.8% (−0.4%, 2%)” and the “Relative % Change (95% Confidence Interval)” value ([1]; BMI, per unit increase) was −1.5% (−3%, 0%). The “Relative % Change Compared with Reference (95% Confidence Interval)” value ([1]; Black vs White (reference)) was −32.2% (−52.1%–−4.0%), the “Relative % change per variant allele (95% CI)” value ([1]; CYP1A1 15:74724835 rs2606345) was 0% (−13%, 15%) and the “Relative % change per variant allele (95% CI)” value ([1]; CYP1A1*2 rs4646903) was “+16% (−7%, 46%)”. The “Relative % change per variant allele (95% CI)” value ([1]; CYP1B1 2:38080367 rs162555) was 6% (−11%, 26%), the “Relative % change per variant allele (95% CI)” value ([1]; CYP1B1 Ala119Ser rs1056827) was −1% (−15%, 16%) and the “Relative % change per variant allele (95% CI)” value ([1]; CYP1B1 Arg48Gly rs10012) was −4% (−18%, 12%). The “Relative % change per variant allele (95% CI)” value ([1]; CYP3A4*1G rs2242480) was −4% (−20%, 15%), the “Median Concentration (range), Heterozygous” value [1, 3] was 10.7 (2.8 – 72.0) ng/mL and the “Median Concentration (range), Homozygous Wild-type” value [1, 3] was 7.7 (2.5 – 42.2) ng/mL. For the same compound, the “Relative % change per variant allele (95% CI)” value ([1]; CYP4A11 −845A/G rs9332978) was “+14% (−15%, 51%)”, the “Patients with concentration <LLOQ” value ([1]; LLOQ 2.5 ng/mL, 26 of 246 patients) was 10.6% and the “Median Exemestane Concentration” value ([1]; Sample Collection Time 1 month, 2 h post-dose) was 6.0 ng/mL. For the same compound, the “Median Exemestane Concentration” value ([1]; Sample Collection Time 3 month, 2 h post-dose) was 8.0 ng/mL, the “Relative % Change Compared with Reference (95% Confidence Interval)” value ([1]; elevated aminotransferases Yes vs No (reference)) was “+42.9% (0.6%, 103%)” and the “Decrease in exemestane concentration per unit increase in BMI” value ([1]; per unit increase in BMI) was 1.5%. For the same compound, the “Greater exemestane exposure in patients with hepatic impairment” value ([2]; hepatic impairment based on Child-Pugh grade) was 2–3 fold and the “Greater exemestane exposure in patients with renal impairment” value ([2]; renal impairment) was 2–3 fold.
